Data reported in ChEMBL document CHEMBL6182898, “Design, synthesis and bioevaluation of novel hydrazide derivatives as enhancers of immunotherapy and DNA-damage response in antitumor therapy” (Eur J Med Chem, 2025).
Values belong to the molecule of their own block, whether it stands above or below them. The source made the active and inactive calls. No cut-off for these calls is given here.

Legend:
4T1 [1] = assay: Antiproliferative activity against mouse 4T1 cells incubated for 72 hrs by MTT assay; type: functional, cell-based; details: 4T1, 72 h
SK-OV-3 [2] = assay: Antiproliferative activity against human SK-OV-3 cells incubated for 72 hrs by MTT assay; type: functional, cell-based; details: SK-OV-3, 72 h
Histone deacetylase 8 = biological target: T1, Histone deacetylase 8 (Homo sapiens, UniProt Q9BY41); assay: Inhibition of HDAC8 (unknown origin)
T1 sequence (Q9BY41 whole entry): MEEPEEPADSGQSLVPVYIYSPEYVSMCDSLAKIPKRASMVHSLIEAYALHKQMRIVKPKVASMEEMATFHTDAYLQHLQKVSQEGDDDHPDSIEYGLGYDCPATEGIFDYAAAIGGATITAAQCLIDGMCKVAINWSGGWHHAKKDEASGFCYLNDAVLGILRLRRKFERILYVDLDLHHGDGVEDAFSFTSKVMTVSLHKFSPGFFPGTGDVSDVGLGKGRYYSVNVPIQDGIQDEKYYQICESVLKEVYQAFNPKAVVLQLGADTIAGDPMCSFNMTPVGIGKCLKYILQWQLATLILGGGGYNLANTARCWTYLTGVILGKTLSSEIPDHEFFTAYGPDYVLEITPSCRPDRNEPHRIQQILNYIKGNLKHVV

K562 [3] = assay: Antiproliferative activity against human K562 cells incubated for 72 hrs by CCK8 assay; type: functional, cell-based; details: K562, 72 h
SK-OV-3 [4] = assay: cells; type: functional; details: Homo sapiens, time 72 hrs
K562 [5] = assay: cells; type: functional; details: Homo sapiens, time 72 hrs
Histone deacetylase 1 = Histone deacetylase 1 (Homo sapiens, UniProt Q13547); assay: Inhibition of HDAC1 (unknown origin)
B16-F10 [6] = assay: Antiproliferative activity against mouse B16-F10 cells incubated for 72 hrs by MTT assay; type: functional, cell-based; details: B16-F10, 72 h
4T1 [7] = assay: cells; type: functional; details: Mus musculus, time 72 hrs
Histone deacetylase 3 = Histone deacetylase 3 (Homo sapiens, UniProt O15379); assay: Inhibition of HDAC3 (unknown origin)
[8] = Antiproliferative activity against human HK-2 cells incubated for 72 hrs by MTT assay
HCT-116 [9] = assay: cells; type: functional; details: Homo sapiens, time 72 hrs
HCT-116 [10] = assay: Antiproliferative activity against human HCT-116 cells incubated for 72 hrs by MTT assay; type: functional, cell-based; details: HCT-116, 72 h
[11] = biological target: T2, Protein deacetylase HDAC6 (Homo sapiens, UniProt Q9UBN7); assay: Inhibition of HDAC6 (unknown origin)
T2 sequence (Q9UBN7 whole entry): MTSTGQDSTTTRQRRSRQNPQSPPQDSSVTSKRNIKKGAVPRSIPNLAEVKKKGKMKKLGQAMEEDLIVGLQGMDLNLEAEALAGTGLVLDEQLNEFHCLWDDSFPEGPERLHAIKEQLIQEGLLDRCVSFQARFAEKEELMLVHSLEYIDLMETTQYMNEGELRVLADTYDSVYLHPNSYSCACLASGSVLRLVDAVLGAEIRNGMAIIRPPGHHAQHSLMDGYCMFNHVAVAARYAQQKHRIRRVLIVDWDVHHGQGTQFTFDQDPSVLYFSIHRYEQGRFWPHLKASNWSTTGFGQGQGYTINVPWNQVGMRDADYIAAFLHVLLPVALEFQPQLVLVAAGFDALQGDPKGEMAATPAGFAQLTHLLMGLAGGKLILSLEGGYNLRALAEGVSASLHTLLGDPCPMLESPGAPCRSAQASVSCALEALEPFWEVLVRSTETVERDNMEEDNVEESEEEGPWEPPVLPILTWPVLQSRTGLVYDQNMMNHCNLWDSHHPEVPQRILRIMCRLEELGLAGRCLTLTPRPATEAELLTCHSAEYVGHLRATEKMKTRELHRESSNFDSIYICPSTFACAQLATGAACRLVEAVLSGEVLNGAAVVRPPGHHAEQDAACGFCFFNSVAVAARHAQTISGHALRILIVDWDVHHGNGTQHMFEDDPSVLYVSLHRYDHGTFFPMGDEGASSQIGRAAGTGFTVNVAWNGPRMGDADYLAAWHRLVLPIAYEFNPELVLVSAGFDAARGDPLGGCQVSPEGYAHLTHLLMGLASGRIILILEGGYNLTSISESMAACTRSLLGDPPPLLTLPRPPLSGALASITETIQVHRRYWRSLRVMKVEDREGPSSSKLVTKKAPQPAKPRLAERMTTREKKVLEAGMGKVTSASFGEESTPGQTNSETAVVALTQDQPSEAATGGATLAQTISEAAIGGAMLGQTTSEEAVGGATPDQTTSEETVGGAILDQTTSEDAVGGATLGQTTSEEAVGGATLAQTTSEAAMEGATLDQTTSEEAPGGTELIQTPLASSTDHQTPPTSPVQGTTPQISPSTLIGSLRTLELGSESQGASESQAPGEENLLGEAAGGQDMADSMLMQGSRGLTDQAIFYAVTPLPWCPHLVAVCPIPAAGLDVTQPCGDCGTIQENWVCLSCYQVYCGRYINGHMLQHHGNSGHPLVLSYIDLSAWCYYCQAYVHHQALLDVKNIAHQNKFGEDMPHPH

B16-F10 [12] = assay: cells; type: functional; details: Mus musculus, time 72 hrs
B16-F10 [13] = assay: Induction of antitumor immunity in mouse B16-F10 cells implanted in male C57BL/6J mouse assessed as CD3+CD8+ T cell infiltration at 20 mg/kg, IG treated for 14 days consecutively by flow cytometry (reference value: 10 %); type: functional; details: time 14 day
B16-F10 [14] = assay: Antitumor activity against mouse B16-F10 cells implanted in male C57BL/6J mouse at 20 mg/kg, IG treated for 14 days consecutively relative to control; type: functional; details: B16-F10, po, 336 h, time 14 day, read-out: TGI
B16-F10 [15] = assay: Induction of antitumor immunity in mouse B16-F10 cells implanted in male C57BL/6J mouse assessed as CD3+CD4+ T cell infiltration at 20 mg/kg, IG treated for 14 days consecutively by flow cytometry (reference value: 7.4 %); type: functional; details: time 14 day
[16] = biological target: T3, Histone deacetylase 3 (Mus musculus) (UniProt O88895); assay: In vivo inhibition of HDAC3 in mouse B16-F10 cells implanted in male C57BL/6J mouse assessed as increase in Ac-H3 level at 50 mg/kg, IG treated for 14 days consecutively by Western blot analysis; type: functional, organism-based; details: time 14.0 day
T3 sequence (whole entry): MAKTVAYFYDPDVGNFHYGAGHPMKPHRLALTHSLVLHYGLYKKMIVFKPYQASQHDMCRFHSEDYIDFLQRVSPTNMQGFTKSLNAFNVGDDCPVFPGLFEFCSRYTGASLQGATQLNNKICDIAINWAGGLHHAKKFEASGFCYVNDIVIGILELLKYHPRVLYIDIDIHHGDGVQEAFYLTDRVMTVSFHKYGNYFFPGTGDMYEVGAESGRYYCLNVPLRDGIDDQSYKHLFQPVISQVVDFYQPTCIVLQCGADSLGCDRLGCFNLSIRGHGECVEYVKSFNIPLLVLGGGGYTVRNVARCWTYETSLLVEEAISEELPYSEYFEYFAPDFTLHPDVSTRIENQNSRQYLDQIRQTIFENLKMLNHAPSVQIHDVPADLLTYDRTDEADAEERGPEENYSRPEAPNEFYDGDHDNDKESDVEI

4T1 [17] = assay: Induction of DNA damage in mouse 4T1 cells assessed as increase in gamma-H2AX level at 5 uM by immunofluorescence based analysis; type: functional, cell-based
4T1 [18] = assay: Induction of DNA damage in mouse 4T1 cells assessed as increase in gamma-H2AX level at 2 uM incubated for 24 hrs by Western blot analysis; type: functional, cell-based
4T1 [19] = assay: Synergistic induction of DNA damage in mouse 4T1 cells assessed as increase in gamma-H2AX level at 1 uM incubated for 24 hrs in presence of Olaparib by Western blot analysis; type: functional, cell-based
4T1 [20] = assay: Induction of DNA damage in mouse 4T1 cells assessed as decrease in PARP1 level at 5 uM by immunofluorescence based analysis; type: functional, cell-based
B16-F10 [21] = assay: Induction of antitumor immunity in mouse B16-F10 cells implanted in male C57BL/6J mouse assessed as CD3+CD4+ T cell infiltration at 50 mg/kg, IG treated for 14 days consecutively by flow cytometry (reference value: 7.4 %); type: functional; details: time 14 day
4T1 [22] = assay: Induction of DNA damage in mouse 4T1 cells assessed as decrease in PARP1 level at 2 uM incubated for 24 hrs by Western blot analysis; type: functional, cell-based
4T1 [23] = assay: Synergistic induction of DNA damage in mouse 4T1 cells assessed as decrease in PARP1 level at 1 uM incubated for 24 hrs in presence of Olaparib by Western blot analysis; type: functional, cell-based
[24] = biological target: T3, Histone deacetylase 3 (Mus musculus); assay: In vivo inhibition of HDAC3 in mouse B16-F10 cells implanted in male C57BL/6J mouse assessed as increase in Ac-H3 level at 50 mg/kg, IG treated for 14 days consecutively by immunofluorescence based analysis; type: functional, organism-based; details: time 14.0 day
Mus musculus = assay: Effect on Ac-alpha-tubulin in mouse B16-F10 cells implanted in male C57BL/6J mouse at 50 mg/kg, IG treated for 14 days consecutively by Western blot analysis; type: functional, organism-based; details: time 14.0 day
B16-F10 [25] = assay: Induction of antitumor immunity in mouse B16-F10 cells implanted in male C57BL/6J mouse assessed as CD3+CD8+ T cell infiltration at 50 mg/kg, IG treated for 14 days consecutively by flow cytometry (reference value: 10 %); type: functional; details: time 14 day
[26] = biological target: T3, Histone deacetylase 3 (Mus musculus); assay: In vivo inhibition of HDAC3 in mouse B16-F10 cells implanted in male C57BL/6J mouse assessed as decrease in PD-L1 level at 50 mg/kg, IG treated for 14 days consecutively by Western blot analysis; type: functional, organism-based; details: time 14.0 day

Sequence of Histone deacetylase 1 (Q13547 whole entry): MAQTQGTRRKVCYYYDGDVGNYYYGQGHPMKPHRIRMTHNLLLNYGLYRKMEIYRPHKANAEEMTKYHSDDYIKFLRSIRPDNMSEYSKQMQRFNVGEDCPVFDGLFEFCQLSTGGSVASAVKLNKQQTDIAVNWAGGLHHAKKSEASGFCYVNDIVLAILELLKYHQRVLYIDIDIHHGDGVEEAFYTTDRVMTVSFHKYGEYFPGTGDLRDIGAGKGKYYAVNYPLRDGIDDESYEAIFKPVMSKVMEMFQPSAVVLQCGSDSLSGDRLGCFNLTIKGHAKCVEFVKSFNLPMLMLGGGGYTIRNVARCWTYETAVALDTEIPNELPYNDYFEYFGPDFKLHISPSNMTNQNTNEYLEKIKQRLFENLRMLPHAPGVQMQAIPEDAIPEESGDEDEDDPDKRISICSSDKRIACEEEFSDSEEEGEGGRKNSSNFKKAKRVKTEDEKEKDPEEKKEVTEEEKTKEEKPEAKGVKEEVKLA
Sequence of Histone deacetylase 3 (O15379 whole entry): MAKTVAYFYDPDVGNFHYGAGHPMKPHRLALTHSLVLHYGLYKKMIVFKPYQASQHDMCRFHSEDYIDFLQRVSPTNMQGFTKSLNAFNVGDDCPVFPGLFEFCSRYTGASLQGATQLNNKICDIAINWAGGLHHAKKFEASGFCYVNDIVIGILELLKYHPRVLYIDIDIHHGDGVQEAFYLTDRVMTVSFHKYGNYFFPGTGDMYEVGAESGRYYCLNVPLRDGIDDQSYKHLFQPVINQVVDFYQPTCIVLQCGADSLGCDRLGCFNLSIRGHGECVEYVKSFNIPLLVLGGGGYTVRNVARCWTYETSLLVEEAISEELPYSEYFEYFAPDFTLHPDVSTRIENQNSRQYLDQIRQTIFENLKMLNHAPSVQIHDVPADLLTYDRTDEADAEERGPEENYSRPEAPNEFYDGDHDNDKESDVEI

- IC50 (4T1 [1]): 14.4 µM
- IC50 (SK-OV-3 [2]): 4.48 µM
- IC50 (Histone deacetylase 8): > 10 µM
- IC50 (K562 [3]): 2.71 µM
- IC50 (Histone deacetylase 1): 3.26 µM
- IC50 (B16-F10 [6]): 11.1 µM
- IC50 (Histone deacetylase 3): 0.55 µM
- IC50 (HCT-116 [10]): 4.14 µM
- IC50 [11]: > 10 µM
SMILES: CCCNNC(=O)CCCCCCNC(=O)c1cnc(-c2ccc3ccccc3c2)s1
- inhibition at 10 µM (SK-OV-3 [4]): 81.5%
- inhibition at 10 µM (K562 [5]): < 50%
- inhibition at 10 µM (4T1 [7]): < 20%
- IC50 at 72 h [8]: 10.8 µM
- inhibition at 10 µM (HCT-116 [9]): 94.7%
- inhibition at 10 µM (B16-F10 [12]): 57.6%

SMILES: Cc1c(COc2cc(OCc3cccc(C#N)c3)c(CNC(C)(C)C(=O)O)cc2Cl)cccc1-c1ccccc1
- Activity (B16-F10 [13]): 31%
- inhibition in vivo at 20 mg/kg (B16-F10 [14]): 33%
- Activity (B16-F10 [15]): 23%

- inhibition [16]: Active
- inhibition [24]: Active
- inhibition [26]: Active
SMILES: O=C(CCCCCCC(=O)Nc1ccccc1)NO [VORINOSTAT]
- Activity (4T1 [17]): Active
- Activity (4T1 [18]): Active
- Activity (4T1 [19]): Active
- Activity (4T1 [20]): Active
- Activity (B16-F10 [21]): 18%
- Activity (4T1 [22]): Active
- Activity (4T1 [23]): Active
- Activity (Mus musculus): No effect
- Activity (B16-F10 [25]): 17%
